This note sets out measurements from the supplement of paper PMC10307832.

What all share (experiment): relative viability (nuclei count vs DMSO), 5 days (fraction); higher = more cells survive
Compound in test [1]: CCOC1=CC=CC=C1N=NC2=C(NN(C2=O)C3=NC(=CS3)C4=CC=CC=C4)C [BAM7] + NC(=O)Nc1cc(-c2cccc(F)c2)sc1C(=O)N[C@H]1CCCNC1 [AZD7762] (partner 0.2 µM)
In short, it runs like this: (§1)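 Cells from lung cancer lines were seeded into 1536-well plates and, one day later, dosed by pin tool. Treatments were either a single drug or a fixed dose of an anchor drug with five library-drug doses (not always all listed) in √10 steps. After 5 days, nuclei were stained in a one-step fixation (final 0.05% Triton X-100, 1% formaldehyde, 1 ug/ml Hoechst) and counted on 4× images, and relative viability is the treated-to-vehicle nuclei ratio, as the median of duplicate plates.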

Compound in test [2]: CCn1c(-c2nonc2N)nc2c(C#CC(C)(C)O)ncc(OC[C@H]3CCCNC3)c21 + Cc1nc(NC(=O)N2CCC[C@H]2C(N)=O)sc1-c1ccnc(C(C)(C)C(F)(F)F)c1 [Alpelisib] (partner 2 µM)
In short, it runs like this:
as §1

Compound in test [3]: CCOC1=CC=CC=C1N=NC2=C(NN(C2=O)C3=NC(=CS3)C4=CC=CC=C4)C [BAM7] + Cc1cc(Nc2cc(N3CCN(C)CC3)nc(Sc3ccc(NC(=O)C4CC4)cc3)n2)n[nH]1 [Tozasertib] (partner 0.1 µM)
A digest of the protocol:
as §1

Compound in test [4]: CCOC1=CC=CC=C1N=NC2=C(NN(C2=O)C3=NC(=CS3)C4=CC=CC=C4)C [BAM7] + COc1cccc2cc(-c3nc([C@H]4CC[C@H](C(=O)O)CC4)n4ncnc(N)c34)[nH]c12 [OSI-027] (partner 0.5 µM)
In short, it runs like this:
as §1

Take NCI-H322M: the relative viability in test [1] (first compound 0.5 µM) stood at 0.554; in test [1] (first compound 5 µM) it was 0.467; in test [1] (first compound 15.81 µM), 0.544; in test [1] (first compound 50 µM), 0.583; in test [2] (first compound 0.01 µM) it was 0.868; in test [2] (first compound 0.03162 µM) it was 0.765. In addition, the relative viability in test [2] (first compound 0.1 µM) was found to be 0.121; in test [2] (first compound 0.3162 µM), 0.853; in test [2] (first compound 1 µM), 0.813; in test [3] (first compound 0.5 µM), 0.481; in test [3] (first compound 5 µM), 0.474; in test [3] (first compound 15.81 µM), 0.523. The relative viability turned out to be 0.467 in test [3] (first compound 50 µM); 0.576 in test [4] (first compound 0.5 µM); 0.617 in test [4] (first compound 5 µM); 0.57 in test [4] (first compound 15.81 µM); 0.65 in test [4] (first compound 50 µM).
Take NCI-H2170: the relative viability in test [1] (first compound 0.5 µM) worked out at 0.652; in test [1] (first compound 5 µM) it was 0.691; in test [1] (first compound 15.81 µM) it was 0.614; in test [1] (first compound 50 µM), 0.804; in test [2] (first compound 0.01 µM), 0.837; in test [2] (first compound 0.03162 µM), 0.833. Moreover, the relative viability was 0.824 in test [2] (first compound 0.1 µM); 0.721 in test [2] (first compound 0.3162 µM); 0.759 in test [2] (first compound 1 µM); 0.664 in test [3] (first compound 0.5 µM); 0.748 in test [3] (first compound 5 µM); 0.501 in test [3] (first compound 15.81 µM). Further, the relative viability came to 0.793 in test [3] (first compound 50 µM); 0.688 in test [4] (first compound 0.5 µM); 0.592 in test [4] (first compound 5 µM); 0.635 in test [4] (first compound 15.81 µM); 0.72 in test [4] (first compound 50 µM).
As for NCI-H1395, the relative viability came to 0.395 in test [1] (first compound 0.5 µM); 0.407 in test [1] (first compound 5 µM); 0.394 in test [1] (first compound 15.81 µM); 0.421 in test [1] (first compound 50 µM); 0.986 in test [2] (first compound 0.01 µM); 1.35 in test [2] (first compound 0.03162 µM). Further, the relative viability in test [2] (first compound 0.1 µM) was determined as 1.01; in test [2] (first compound 0.3162 µM), 0.79; in test [2] (first compound 1 µM), 0.76; in test [3] (first compound 0.5 µM), 0.701; in test [3] (first compound 5 µM), 1.01; in test [3] (first compound 15.81 µM), 0.806. For the same cell line, the relative viability in test [3] (first compound 50 µM) is 0.771; in test [4] (first compound 0.5 µM), 0.684; in test [4] (first compound 5 µM), 0.67; in test [4] (first compound 15.81 µM), 0.704; in test [4] (first compound 50 µM), 0.97.
For NCI-H358, the relative viability in test [1] (first compound 0.5 µM) came out at 0.62; in test [1] (first compound 5 µM) it was 0.519; in test [1] (first compound 15.81 µM), 0.5; in test [1] (first compound 50 µM) it was 0.55; in test [2] (first compound 0.01 µM), 0.896; in test [2] (first compound 0.03162 µM) it was 0.784. Also, the relative viability in test [2] (first compound 0.1 µM) was 0.787; in test [2] (first compound 0.3162 µM) it was 0.687; in test [2] (first compound 1 µM), 0.701; in test [3] (first compound 0.5 µM), 0.136; in test [3] (first compound 5 µM), 0.0963; in test [3] (first compound 15.81 µM) it was 0.0944. Besides, the relative viability in test [3] (first compound 50 µM) came out at 0.108; in test [4] (first compound 0.5 µM), 0.832; in test [4] (first compound 5 µM), 0.899; in test [4] (first compound 15.81 µM), 0.796; in test [4] (first compound 50 µM), 0.908.
For the cell line NCI-H838, the relative viability came out at 0.919 in test [1] (first compound 0.5 µM); 0.968 in test [1] (first compound 5 µM); 0.862 in test [1] (first compound 15.81 µM); 1 in test [1] (first compound 50 µM); 1.05 in test [2] (first compound 0.01 µM); 1.02 in test [2] (first compound 0.03162 µM). For the same cell line, the relative viability in test [2] (first compound 0.1 µM) is 1.03; in test [2] (first compound 0.3162 µM) it was 0.979; in test [2] (first compound 1 µM) it was 0.989; in test [3] (first compound 0.5 µM), 0.262; in test [3] (first compound 5 µM), 0.309; in test [3] (first compound 15.81 µM), 0.233. The relative viability in test [3] (first compound 50 µM) stood at 0.263; in test [4] (first compound 0.5 µM) it was 0.365; in test [4] (first compound 5 µM), 0.435; in test [4] (first compound 15.81 µM) it was 0.405; in test [4] (first compound 50 µM), 0.379.
Take CAL-12T: the relative viability in test [1] (first compound 0.5 µM) amounted to 0.589; in test [1] (first compound 5 µM), 0.714; in test [1] (first compound 15.81 µM), 0.557; in test [1] (first compound 50 µM) it was 0.609; in test [2] (first compound 0.01 µM), 1.03; in test [2] (first compound 0.03162 µM), 1.33. In addition, the relative viability in test [2] (first compound 0.1 µM) is 1.21; in test [2] (first compound 0.3162 µM) it was 1.24; in test [2] (first compound 1 µM) it was 0.939; in test [3] (first compound 0.5 µM), 0.311; in test [3] (first compound 5 µM) it was 0.257; in test [3] (first compound 15.81 µM), 0.236. Moreover, the relative viability in test [3] (first compound 50 µM) was 0.24; in test [4] (first compound 0.5 µM), 0.553; in test [4] (first compound 5 µM), 0.492; in test [4] (first compound 15.81 µM), 0.432; in test [4] (first compound 50 µM), 0.845.
